Measured values from patent publication US11639493B2, “Consortium of bacteria that mineralises lipids, starches and sugars (carbohydrates) and are resistant to lethal doses of thiodicarb (carbamate) and bifenthrin (pyrethroid) for inoculation into organic matter of different origins” (priority 2018, dated 2023).

How the values were obtained:
Type in all cases: cell-based
Arthrobacter globiformis = assay: Adaptation stages: mortality of Arthrobacter globiformis on growth media with thiodicarb or bifenthrin; conditions: for initial mortality: summary of the adaptation tests with increasing concentrations of thiodicarb and bifenthrin
Description: (§1) Bacteria strains, nitrifiers, phosphorus solubilizers and antagonists for pathogens: • a) Arthrobacter globiformis • b) Bacillus megaterium • c) Bacillus brevis • d) Bacillus thuringiensis Preparation for Stage Development • 1. Glass material is sterilized in an autoclave. • 2. The required amount of growth media is prepared, DFA Agar, Malt Agar (Corn Agar) and (PDA) to obtain viable colonies. • 3. Lethal dose (LD) applied to a hectare is established, for thiodicarb as well as bifenthrin. 10 Petri dishes are prepared with 0.1 LD of thiodicarb of bifenthrin. Dishes are incubated at 25° C. for 72 hours with cold light. Methodology • a. Physical and chemical variables obtained in the research are maintained using traces. Petri dishes are placed inside the laminar flow chamber along with the diluted samples, to seed microorganisms in the dishes, a one ml sample of the strain is taken with an automated pipette, 10^−1 and 10^−2 solutions are performed and each solution is homogenized. • b. Having the petri dishes with the sterile and cold growth media, it is homogenized with 6 right to left movements, 6 clockwise movements, 6 counterclockwise movements and 6 front to back movements over a flat horizontal surface until the inoculum is completely integrated into the media, stand until it solidifies and each dish is covered with parafilm to avoid contamination during incubation. • c. The adapted consortium conditions are kept for the starting media (habitat), humidity, pH, temperature, chemical traceability, lighting and airing, Gram colorations and malachite green for the differentiation and observation of cellular structures. • d. Dishes with thiodicarb and Bifenthrin are placed inside the incubator at 25° C. for 72 hours with a cold light lamp. • e. Inoculated dishes are incubated for 72 hours and the bacteria growth will be recorded, the product concentration impact is determined over the plate growth (12 hours of incubation). • f. The residual impact of the product is reviewed after 7 days in the malt agar and PDA agar media. • g. If there is no growth over 10%, the process is repeated until a mortality under 90% is obtained. • h. The colony diameter is determined using a graduated ruler, data is recorded subtracting the diameter of the seeded dish, from which the effect over the mycelial growth will be determined compared to the control (not poisoned MA, denominated as percentage of inhibition of radial growth (PIRG %). • i. Progress is recorded daily and after 7 days analysis of an acceptable coverage is performed, if not, the procedure is repeated as many times as required. • j. From the 10 Petri dishes for each microorganism, the one with the lowest mortality is the one that will continue with the following study. • k. The study is performed again using this percentage until coverage increases and so on, the addition of thiodicarb and bifenthrin is alternated with the LD in intervals of 0.1 LD; all these experiments have been designed with the experimental strains and a control. • l. With the data obtained from the bacterial growth, the percentage of inhibition of gradual growth is obtained, the data is transformed for its analysis with the expression 2 arc sin. A two-way classification analysis of variance is applied and later the Turkey test is performed using a 5% probability.
(§2) Characteristics for this procedure were recorded during all stages through the following indicators: • a. Growth speed • b. Percentage of inhibition measured in Number of CFU/mm • c. Percentage of poison resistance
Habitat conditions are maintained, conditions obtained during the adaptation to organophosphorus and organochlorinated compounds and mercury of the microorganism, pH: 7.0, humidity: 35%, Temperature: Thermoresistant. These conditions are the starting point to adapt the strain to the new pollutants: thiodicarb (carbamate) and bifenthrin (pyrethroid). […]

Bacillus subtillis = assay: Adaptation stages: mortality of Bacillus subtillis on growth media with thiodicarb or bifenthrin; conditions: for Resistant to: FINAL: Bacillus subtillis at the end of the adaptation process
Bacillus brevis = assay: Adaptation stages: mortality of Bacillus brevis on growth media with thiodicarb or bifenthrin; conditions: for Resistant to: FINAL: Bacillus brevis at the end of the adaptation process
Description: as §1, §2
(§3) Beginning with habitat conditions obtained in the adaptation to organophosphate, organochlorine compounds and mercury from the microorganisms at the E-38 pH: 7.2, Humidity: 36%, thermoresistant and facultative anaerobic. These conditions are the starting point to adapt the strain to thiodicarb and bifenthrin.
To adapt this microorganism, 51 stages were performed, beginning the process with the conventional growth media. […]

Bacillus thuringiensis = assay: Adaptation stages: mortality of Bacillus thuringiensis on growth media with thiodicarb or bifenthrin; conditions: for Resistant to: FINAL: B. Thuringiensis at the end of the adaptation process
Description: as §1, §2
as §3, with “52%,” for “36%,”, “thermoresistant (74° C.), […]” for “thermoresistant”, “bifenthrin. During all stages a cold light lamp will be used to adapt the microorganism to sunlight. […]” for “bifenthrin.”

[1] = stages E-5 and E-6, 0.1 LD (0.00000006 gr)
[2] = stages E-7 and E-8, 0.2 LD (0.00000012 gr)
[3] = stages E-13 and E-14, 0.3 LD (0.00000018 gr)
[4] = stages E-21 and E-22, 0.5 LD (0.00000030 gr)
[5] = stages E-29 and E-30, 0.7 LD (0.00000036 gr)
[6] = stages E-37 and E-38, 0.9 LD (0.00000042 gr)
[7] = stages E-45 and E-46, 1.1 LD (0.00000054 gr)
[8] = stages E-3 and E-4, 0.2 LD (0.000035 gr)
[9] = stages E-9 and E-10, 0.3 LD (0.000053 gr)
[10] = stages E-11 and E-12, 0.4 LD (0.000070 gr)
[11] = stages E-15 and E-16, 0.4 LD (0.00000024 gr)
[12] = stages E-17 and E-18, 0.5 LD (0.000087 gr)
[13] = stages E-19 and E-20, 0.6 LD (0.00011 gr)
[14] = stages E-23 and E-24, 0.6 LD (0.00000036 gr)
[15] = stages E-25 and E-26, 0.7 LD (0.00012 gr)
[16] = stages E-27 and E-28, 0.8 LD (0.00014 gr)
[17] = stages E-31 and E-32, 0.8 LD (0.00000042 gr)
[18] = stages E-33 and E-34, 0.9 LD (0.00016 gr)
[19] = stages E-35 and E-36, 1 LD (0.00018 gr)
[20] = stages E-39 and E-40, 1 LD (0.00000048 gr)
[21] = stage E-1, 0.1 LD (0.0000175 gr), until day 68 of incubation
[22] = stage E-2, 0.1 LD (0.0000175 gr)
[23] = stages E-41 and E-42, 1.1 LD (0.00020 gr)
[24] = stages E-43 and E-44, 1.2 LD (0.00022 gr), both stages
[25] = stages E-47 and E-48, 1.2 LD (0.00000060 gr)

Structure (SMILES): Cc1c(COC(=O)[C@@H]2[C@H](/C=C(\Cl)C(F)(F)F)C2(C)C)cccc1-c1ccccc1 (racemic) [bifenthrin, 2-methyl biphenyl-3-ilmetil(2)-(1RS,3RS)-3-(2-chlorine 3,3,3-trifluoropropene)-2,2-dimethyl-cyclo-propane-carboxylate]
- mortality (Arthrobacter globiformis; [1]): 84%
- mortality (Arthrobacter globiformis; [2]): 75%
- mortality (Arthrobacter globiformis; [3]): 70%
- mortality (Arthrobacter globiformis; [4]): 56%
- mortality (Arthrobacter globiformis; [5]): 40%
- mortality (Arthrobacter globiformis; [6]): 25%
- initial mortality (Arthrobacter globiformis): ~82%
- Resistant to: FINAL (Bacillus subtillis): 1 LD of
- mortality (Bacillus subtillis; [1]): 72 to 71%
- mortality (Bacillus subtillis; [2]): 70 to 68%
- mortality (Bacillus subtillis; [3]): 65%
- mortality (Bacillus subtillis; [4]): 47 to 45%
- mortality (Bacillus subtillis; [5]): 25 to 23%
- mortality (Bacillus subtillis; [6]): 8 to 6%
- Resistant to: FINAL (Bacillus brevis): 1.3 LD of
- mortality (Bacillus brevis; [1]): 73%
- mortality (Bacillus brevis; [2]): 70 to 68%
- mortality (Bacillus brevis; [3]): 67%
- mortality (Bacillus brevis; [4]): 55%
- mortality (Bacillus brevis; [5]): 44%
- mortality (Bacillus brevis; [6]): 26%
- mortality (Bacillus brevis; [7]): 20%
- Resistant to: FINAL (Bacillus thuringiensis): 1.2 LD of
- mortality (Bacillus thuringiensis; [1]): 68 to 65%
- mortality (Bacillus thuringiensis; [2]): 64 to 63%
- mortality (Bacillus thuringiensis; [3]): 57 to 55%
- mortality (Bacillus thuringiensis; [4]): 50 to 45%
- mortality (Bacillus thuringiensis; [5]): 36 to 33%
- mortality (Bacillus thuringiensis; [6]): 30 to 28%
- mortality (Bacillus thuringiensis; [7]): 15 to 12%

Structure (SMILES): CS/C(C)=N\OC(=O)N(C)SN(C)C(=O)O/N=C(\C)SC [thiodicarb]
- mortality (Arthrobacter globiformis; stages E-1 and E-2, 0.1 LD (0.0000175 gr) in growth media, until incubation day 45): 86%
- mortality (Arthrobacter globiformis; [8]): 66 to 80%
- mortality (Arthrobacter globiformis; [9]): 74%
- mortality (Arthrobacter globiformis; [10]): 71%
- mortality (Arthrobacter globiformis; [11]): 62%
- mortality (Arthrobacter globiformis; [12]): 63%
- mortality (Arthrobacter globiformis; [13]): 58%
- mortality (Arthrobacter globiformis; [14]): 48%
- mortality (Arthrobacter globiformis; [15]): 48%
- mortality (Arthrobacter globiformis; [16]): 40%
- mortality (Arthrobacter globiformis; [17]): 36%
- mortality (Arthrobacter globiformis; [18]): 32%
- mortality (Arthrobacter globiformis; [19]): 25%
- mortality (Arthrobacter globiformis; [20]): 18%
- initial mortality (Arthrobacter globiformis): ~82%
- Resistant to: FINAL (Bacillus subtillis): 1 LD of
- mortality (Bacillus subtillis; [21]): 82%
- mortality (Bacillus subtillis; [22]): 80%
- mortality (Bacillus subtillis; [8]): 75 to 72%
- mortality (Bacillus subtillis; [9]): 66 to 63%
- mortality (Bacillus subtillis; [10]): 64 to 62%
- mortality (Bacillus subtillis; [11]): 64 to 60%
- mortality (Bacillus subtillis; [12]): 59 to 54%
- mortality (Bacillus subtillis; [13]): 52 to 50%
- mortality (Bacillus subtillis; [14]): 40 to 35%
- mortality (Bacillus subtillis; [15]): 35 to 30%
- mortality (Bacillus subtillis; [16]): 28 to 25%
- mortality (Bacillus subtillis; [17]): 20 to 18%
- mortality (Bacillus subtillis; [18]): 18 to 15%
- mortality (Bacillus subtillis; [19]): 12 to 9%
- mortality (Bacillus subtillis; [20]): 5%
- Resistant to: FINAL (Bacillus brevis): 1.3 LD of
- mortality (Bacillus brevis; [21]): 82%
- mortality (Bacillus brevis; [22]): 78%
- mortality (Bacillus brevis; [8]): 72%
- mortality (Bacillus brevis; [9]): 68%
- mortality (Bacillus brevis; [10]): 67%
- mortality (Bacillus brevis; [11]): 60%
- mortality (Bacillus brevis; [12]): 59 to 54%
- mortality (Bacillus brevis; [13]): 55%
- mortality (Bacillus brevis; [14]): 51%
- mortality (Bacillus brevis; [15]): 50%
- mortality (Bacillus brevis; [16]): 46%
- mortality (Bacillus brevis; [17]): 42%
- mortality (Bacillus brevis; [18]): 38%
- mortality (Bacillus brevis; [19]): 28%
- mortality (Bacillus brevis; [20]): 20%
- mortality (Bacillus brevis; [23]): 28%
- mortality (Bacillus brevis; [24]): 22%
- mortality (Bacillus brevis; [25]): 12%
- mortality (Bacillus brevis; stages E-49 and E-50, 1.3 LD (0.00024 gr)): 10%
- Resistant to: FINAL (Bacillus thuringiensis): 1.2 LD of
- mortality (Bacillus thuringiensis; stages E-1 and E-2, 0.1 LD (0.0000175 gr), until day 45 of incubation): 72 to 70%
- mortality (Bacillus thuringiensis; [8]): 70 to 68%
- mortality (Bacillus thuringiensis; [9]): 65 to 61%
- mortality (Bacillus thuringiensis; [10]): 57 to 55%
- mortality (Bacillus thuringiensis; [11]): 52 to 50%
- mortality (Bacillus thuringiensis; [12]): 52 to 50%
- mortality (Bacillus thuringiensis; [13]): 50 to 45%
- mortality (Bacillus thuringiensis; [14]): 44 to 42%
- mortality (Bacillus thuringiensis; [15]): 44 to 40%
- mortality (Bacillus thuringiensis; [16]): 36 to 35%
- mortality (Bacillus thuringiensis; [17]): 30 to 28%
- mortality (Bacillus thuringiensis; [18]): 30%
- mortality (Bacillus thuringiensis; [19]): 25%
- mortality (Bacillus thuringiensis; [20]): 18 to 17%
- mortality (Bacillus thuringiensis; [23]): 18 to 17%
- mortality (Bacillus thuringiensis; [24]): 14%
- mortality (Bacillus thuringiensis; [25]): 10 to 7%
